Where two headings read alike, the source gives them in different places. Marks after values point to notes of the source that are not given here. Some results are limits rather than exact numbers.

We go through seven compounds from patent publication US20130196937A1, “AGE PRODUCTION INHIBITOR” (ORYZA OIL & FAT CHEMICAL CO., LTD., priority 2010, published 2013).

One assay deals with AGE production. Briefly: Test 1: AGE production inhibition (D-glucose + bovine serum albumin, fluorescence). It is filed as biochemical. The method, then:
Put the sample solution ([…]) of the concentration of cherry-blossom extract (Example 1) and cherry-leaf extract (Example 2), as shown in the chart, below, into a phosphate buffer solution (pH: […]) containing D-glucose (10%) and into bovine serum albumin (fraction 5.1%) and leave it out at a temperature of 60 degrees centigrade for two days. Dilute the reaction solution with distilled water until the intensity of fluorescent light reaches about 500, thus determining its intensity (measurement wavelength: […]). Also, the extract is to be diluted with distilled water, and the substance, after being dissolved in DMSO (dimethyl sulphoxide), is to be diluted with a phosphate buffer solution until DMSO concentration is of 1%. Each value in Chart 1 indicates an average value with standard error of the three examples. Asterisks (*, **) mean a significant difference (i.e. *: p<0.05; **: p<0.01) between the processed samples and the unprocessed samples as determined by Dunnett's Multiple Comparison Test.

The test system of assay [1] is normal diploid fibroblast (PDL22-32 cells). The experiment in a line: Test 2-2: fibroblast apoptosis caused by CML-collagen (Caspase Assay), extracts and substances. Type of assay: cell-based, human. The method, then:
50 mg of 1 mM HCL was added to 25 mL of bovine skin-derived collagen and dissolved for two hours incubation at the temperature of 37 degrees centigrade, and was shaken as needed. Then, PBS (pH7.4 25 mL) was added to sodium cyanoborohydride (1.42 g) and to glyoxylic acid (0.9 g) and mixed so as to react at the temperature of 37 degrees centigrade for 24 hours. The reaction solution was then put into a dialysis cell of 10,000 molecular mass for a dialysis-with-water test to be conducted for one day and for a dialysis-with-PBS to be conducted for six days. CML-collagen (21 mg) was obtained by freeze-drying the dialysate.
The fibroblast (7×10^4 cells) was suspended in the D-MEM medium containing FCS (0.5%), penicillin (100 units/mL) and streptomycin ([…]) to be seeded within 96-well plates ([…]). After 24 hours of culture, the dissolved CML-collagen solution (2 mg·mL) and the sample solution ([…]) were added to the medium and cultured for 24 hours. Collagen, instead of CML-collagen, was added to Normal group.
The rate of cell survival was measured by MIT Assay. The result is shown in Chart 2. At the same time, a microscopic test was done, of which the result of formazan formation of fibroblast (×100) is shown in FIG. 2. Apoptosis was identified by measuring active caspase-3/7 by the fluorescence method, of which the result is shown in Chart 3, below. Each value of Charts 2 and 3 is indicated by the average value with standard error of the six examples. Asterisks (*, **) mean a significant difference (i.e. *: p<0.05; **: p<0.01) between the unprocessed samples and Dunnett's multiple comparison test, and f represents p<0.05 by Fisher's PLSD Test.
Here, in Test 2-2, respecting the cherry-blossom extract (Example 1), and the cherry-leaf extract (Example 2) and the seven substances contained in the cherry-blossom extract (Example 1): 1-O-(E)-Caffeoyl-β-D-glucopyranoside, 1-O-(E)-Coumaroyl-β-D-Glucopyranosideand, 1-O-(E)-Cinnamoyl-β-D-glucopyranoside, Kaempferol 3-O-3-D-glucopyranoside, Quercetin 3-O-β-D-glucopyranoside, Kaempferol 3-O-(6″-malony)-β-D-glucopyranoside and Quercetin 3-O-(6″-malony)-β-D-glucopyranoside (Examples 3 to 9), the activity against fibroblast apoptosis, caused by CML-collagen, was identified in the same way as in Test 2-1.
Also, in Test 2-2, PDL22-32 cells were used as the normal diploid fibroblast. As a target for comparison, aminoguanidine hydrochloride which is a medicine for the glycation inhibitor was examined in the same way. Each value of Chart 4 indicates an average value with standard error of the five examples. Asterisks (*, **) mean a significant difference (i.e. *: p<0.05; **: p<0.01) between processed samples and unprocessed samples with CML-collagen, determined by Dunnett's Multiple Comparison Test.

Another assay relates to NB1 RGB fibroblast. Briefly: Test 3: collagen grating formation of fibroblast glycosylated by glyoxal. It is filed as cell-based, human. The method, then:
When fibroblast is cultured in the presence of collagen solution, collagen grating formation can be identified. In a similar test, when adding fibroblast that has been glycosylated by the intermediate product of glycation (glyoxal), it is known that the collagen grating formation is inhibited.
The infant-derived NB1 RGB (passage number 22) was suspended in the D-MEM complete media (1.86×10^4 cells/mL). 15 mL each of it was seeded within each cell-culture dish of 14 cm in diameter. After 24 hours, each sample and glyoxal were added until the molecular mass of each dish became […] and incubate the dishes for five days.
Bovine skin-derived collagen (25 mg) was dissolved in 0.1% acetic acid (8.3 mL). Then, a 10-times concentration of Hanks solution ([…]) was added. Then, 0.1% acetic acid (3.5 mL) was added. 1M NaOH was added to neutralize the solution, which was sterilized by filteration to obtain the collagen solution.
The mixed solution of collected fibroblast (5.4×10^4 cell) was suspended in FCS ([…]), and collagen ([…]) was seeded within a 24-well cell-culture plate and allowed to culture for 24 hours and 48 hours. Each culture was observed through a microscope and by the naked eye. For the purpose of comparison, aminoguanidin hydrochloride which is an anti-glycation agent was also examined in the same way.

Consider `O=c1c(O[C@@H]2O[C@H](CO)[C@@H](O)[C@H](O)[C@H]2O)c(-c2ccc(O)cc2)oc2cc(O)cc(O)c12` [Kaempferol 3-O-β-D-glucopyranoside], for which the “IC50 of AGE production inhibition” value in the assay with AGE production is 102 µg/mL. Besides, the “Inhibition Ratio (%) of AGE production” value is −8.4 ± 0.1** % in the assay with AGE production (1 μg/mL); −9.1 ± 0.2** % in the assay on AGE production (3 μg/mL); −2.0 ± 0.1% in the assay on AGE production (10 μg/mL); 19.4 ± 0.1** % with AGE production (30 μg/mL); 45.0 ± 0.5** % with AGE production (100 μg/mL); 80.3 ± 0.7** % with AGE production (300 μg/mL). Moreover, the “inhibitory activity against apoptosis caused by CML-collagen, result in words” value (“inhibitory activity … result in words” below) in assay [1] was “especially strong inhibitory activity”; in assay [1] (listed as Example 6), “strong inhibitory activity”. For the same compound, the “Inhibition Ratio (%) of fibroblast apoptosis (Caspase Assay)” value (“Inhibition Ratio (%) … (Caspase Assay)” below) in assay [1] (1 μg/mL) is given as −0.7 ± 0.1%; in assay [1] (3 μg/mL), 27.9 ± 1.1%; in assay [1] (10 μg/mL) it was 100.7 ± 4.2%.

For the compound `Cl.N=C(N)NN` [Aminoguanidine Hydrochloride, aminoguanidine hydrochloride, reference compound], the “IC50 of AGE production inhibition” value in the assay with AGE production was determined as 138 µg/mL. For the same compound, the “Inhibition Ratio (%) of AGE production” value in the assay with AGE production (10 μg/mL) is 1.4 ± 0.1%; in the assay on AGE production (30 μg/mL), 18.1 ± 1.1%; with AGE production (100 μg/mL), 42.6 ± 1.7** %; in the assay on AGE production (300 μg/mL) it was 67.7 ± 1.6** %. Further, the “Inhibition Ratio (%) … (Caspase Assay)” value in assay [1] (100 μg/mL) is 104.8 ± 34* %. For the same compound, the “fibroblast shape, microscopic image after 24 hours of culture (FIG. 4)” value in the assay on NB1 RGB fibroblast is listed as “spherically shaped”. In addition, in the assay on NB1 RGB fibroblast (100 mg/mL, with glyoxal), the “amount of collagen grating formation (naked eye, FIG. 3), compared to the control group” value was “showed no increase in the amount of grating formation”.

For `O=C(/C=C/c1ccc(O)cc1)O[C@@H]1OC(CO)[C@@H](O)C(O)C1O` (stereo partly drawn) [1-O-(E)-Coumaroyl-β-D-glucopyranoside], the “AGE inhibitory activity in words, related compound with less hydroxyl compared with Example 3” value with AGE production was “reduced”. In addition, the “IC50 of AGE production inhibition” value in the assay on AGE production was more than 300 µg/mL. Moreover, the “Inhibition Ratio (%) of AGE production” value in the assay on AGE production (1 μg/mL) is on record as −3.2 ± 0.1%; in the assay with AGE production (3 μg/mL), −8.2 ± 0.1** %; with AGE production (10 μg/mL), −8.6 ± 0.1** %; in the assay on AGE production (30 μg/mL), −8.9 ± 0.1** %; with AGE production (100 μg/mL) it was −3.7 ± 0.1** %; with AGE production (300 μg/mL), 11.6 ± 0.1** %. Also, the results for the “Inhibition Ratio (%) … (Caspase Assay)” value in assay [1] (1 μg/mL), in assay [1] (3 μg/mL) and in assay [1] (10 μg/mL) were 17.2 ± 0.5%, 7.1 ± 0.2% and 51.1 ± 1.9%, respectively.

Consider `O=C(O)CC(=O)OCC1O[C@@H](Oc2c(-c3ccc(O)cc3)oc3cc(O)cc(O)c3c2=O)C(O)C(O)[C@@H]1O` (stereo partly drawn) [Kaempferol 3-O-(6″-malony)-β-D-glucopyranoside], for which the “IC50 of AGE production inhibition” value in the assay on AGE production came out at 78 µg/mL. Besides, the “Inhibition Ratio (%) of AGE production” value in the assay on AGE production (1 μg/mL) is −5.0 ± 0.1%; in the assay on AGE production (3 μg/mL), −8.5 ± 0.1%; in the assay with AGE production (10 μg/mL) it was 0.2 ± 0.1%; in the assay on AGE production (30 μg/mL), 20.5 ± 0.3** %; with AGE production (100 μg/mL), 50.8 ± 0.4** %; in the assay with AGE production (300 μg/mL) it was 91.7 ± 1.7** %. Besides, the “inhibitory activity … result in words” value in assay [1] is given as “relatively weak activity”. For the same compound, the “Inhibition Ratio (%) … (Caspase Assay)” value in assay [1] (1 μg/mL) is recorded as −18.9 ± 0.6%; in assay [1] (3 μg/mL), −17.3 ± 0.6%; in assay [1] (10 μg/mL), 10.5 ± 0.5%.

For the compound `O=C(O)CC(=O)OCC1O[C@@H](Oc2c(-c3ccc(O)c(O)c3)oc3cc(O)cc(O)c3c2=O)C(O)C(O)[C@@H]1O` (stereo partly drawn) [Quercetin 3-O-(6″-malony)-β-D-glucopyranoside], in the assay with AGE production, the “IC50 of AGE production inhibition” value was determined as 36 µg/mL. Also, the “Inhibition Ratio (%) of AGE production” value is recorded as −10.4 ± 0.9% in the assay with AGE production (1 μg/mL); 1.9 ± 0.1% in the assay on AGE production (3 μg/mL); 20.4 ± 0.3** % in the assay with AGE production (10 μg/mL); 43.7 ± 0.7** % in the assay with AGE production (30 μg/mL); 74.6 ± 0.7** % with AGE production (100 μg/mL); 103.9 ± 3.6** % with AGE production (300 μg/mL). In addition, the “inhibitory activity … result in words” value in assay [1] is recorded as “strong inhibitory activity”. The entries for the “Inhibition Ratio (%) … (Caspase Assay)” value in assay [1] (1 μg/mL), in assay [1] (3 μg/mL) and in assay [1] (10 μg/mL) were 21.8 ± 0.7%, 36.6 ± 1.4% and 98.4 ± 4.4* %, respectively.

As to `O=c1c(O[C@@H]2O[C@H](CO)[C@@H](O)[C@H](O)[C@H]2O)c(-c2ccc(O)c(O)c2)oc2cc(O)cc(O)c12` [Quercetin 3-O-β-D-glucopyranoside], the “IC50 of AGE production inhibition” value in the assay on AGE production was determined as 30 µg/mL. Besides, the “Inhibition Ratio (%) of AGE production” value is on record as 8.5 ± 0.1** % with AGE production (1 μg/mL); 6.5 ± 0.1* % in the assay on AGE production (3 μg/mL); 27.6 ± 0.5** % with AGE production (10 μg/mL); 49.8 ± 0.7** % in the assay on AGE production (30 μg/mL); 74.2 ± 1.1** % in the assay with AGE production (100 μg/mL); 100.8 ± 0.6** % with AGE production (300 μg/mL). For the same compound, the “inhibitory activity … result in words” value in assay [1] is reported as “strongest inhibitory activity”. In addition, the “Inhibition Ratio (%) … (Caspase Assay)” value in assay [1] (1 μg/mL) is 44.2 ± 1.5* %; in assay [1] (3 μg/mL), 39.0 ± 1.1* %; in assay [1] (10 μg/mL) it was 121.5 ± 5.4** %.

For the compound `O=C(/C=C/c1ccccc1)O[C@@H]1OC(CO)[C@@H](O)C(O)C1O` (stereo partly drawn) [1-O-(E)-Cinnamoyl-β-D-glucopyranoside], the “AGE inhibitory activity in words, related compound with less hydroxyl compared with Example 3” value in the assay with AGE production was “reduced”. Also, the “IC50 of AGE production inhibition” value in the assay with AGE production was more than 300 µg/mL. Also, the “Inhibition Ratio (%) of AGE production” value is reported as −8.4 ± 0.1% in the assay on AGE production (1 μg/mL); −10.4 ± 0.1% with AGE production (3 μg/mL); −10.9 ± 0.4* % in the assay on AGE production (10 μg/mL); −7.8 ± 0.1% with AGE production (30 μg/mL); 5.7 ± 0.1% with AGE production (100 μg/mL); 23.3 ± 0.4** % with AGE production (300 μg/mL). Further, the “Inhibition Ratio (%) … (Caspase Assay)” value is −11.8 ± 0.3% in assay [1] (1 μg/mL), 19.7 ± 0.9% in assay [1] (3 μg/mL) and 48.6 ± 2.9% in assay [1] (10 μg/mL).
